How the values were obtained:
[1] = molecular target: T1, CK1α ubiquitylation by CRBN (Homo sapiens, UniProt P48729+Q96SW2); test: split-CAT selective growth assay, CK1a as ubiquitylation target of CRBN; type: cell-based; settings: split-CAT system, Cereblon-E2 (Ubc4) fusion, chloramphenicol, 96 and 384 well plates
T1 construct: expressed in transfected cells; host or cells: E. coli
Method: (§1) Activity assays with split-CAT system: Vectors containing the split-CAT ubiquitylation system were co-transformed into E. coli and grew in the presence of the relevant antibiotics (e.g. kanamycin and streptomycin). Overnight culture was harvested and the media was replaced with fresh LB containing 8 μg/ml chloramphenicol. The culture was diluted to O.D.600=0.2 and dispended to a 96 or 384 well plate supplemented with potential small molecule drugs or DMSO only. The plate was placed in a shaker/incubator/reader and OD600 was continuously monitored during the growth.
(§2) This procedure was used to read the ubiquitylation dependent growth of IKZF1, IKZF3, CK1a and GSPT1.
It was expressed in-frame upstream to the N-CAT fragment. […] These assays were performed in 96 and 384 well plates.

[2] = molecular target: T2, GSPT1 ubiquitylation by CRBN (Homo sapiens, UniProt P15170+Q96SW2); test: split-CAT selective growth assay, GSPT1 as ubiquitylation target of CRBN; type: cell-based; design: expressed in transfected cells; host or cells: E. coli; settings: for growth of E. coli that express GSPT1 (ubiquitylation dependent growth, OD600): split-CAT system, Cereblon-E2 (Ubc4) fusion, LB with chloramphenicol, 96 and 384 well plates
Method: as §1, §2
(§3) In a first experiment, IKZF1 (Q13422) and GSPT1 (P15170) were analyzed as potential ubiquitylation targets. These targets were coexpressed with C-CAT-Ub and E1 and the Cereblon-E2 (Ubc4) fusion. […] These assays were performed in 96 and 384 well plates.
In a third experiment, GSPT1 was analyzed as a potential ubiquitylation target. It was expressed in-frame upstream to the N-CAT fragment. The target was co-expressed with C-CAT-Ub, wheat E1 and Cereblon-E2 (Ubc4) fusion. […] These assays were performed in 96 and 384 well plates.
Target sequence in this assay (P15170 whole entry, the tested form may be a part): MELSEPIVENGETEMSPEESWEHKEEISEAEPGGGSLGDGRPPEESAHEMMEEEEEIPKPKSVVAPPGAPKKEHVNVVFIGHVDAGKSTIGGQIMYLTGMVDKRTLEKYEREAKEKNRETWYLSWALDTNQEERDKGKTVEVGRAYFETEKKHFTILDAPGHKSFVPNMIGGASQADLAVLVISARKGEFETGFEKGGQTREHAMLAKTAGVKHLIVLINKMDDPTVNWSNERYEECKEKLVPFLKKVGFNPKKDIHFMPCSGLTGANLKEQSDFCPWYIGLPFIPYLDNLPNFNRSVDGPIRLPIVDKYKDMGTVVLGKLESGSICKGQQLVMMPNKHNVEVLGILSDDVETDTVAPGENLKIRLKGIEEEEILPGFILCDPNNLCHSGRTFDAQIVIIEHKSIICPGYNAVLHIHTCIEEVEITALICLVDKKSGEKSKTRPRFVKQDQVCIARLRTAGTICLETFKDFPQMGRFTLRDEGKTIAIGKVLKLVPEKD
Target sequence in this assay (Q96SW2 whole entry, the tested form may be a part): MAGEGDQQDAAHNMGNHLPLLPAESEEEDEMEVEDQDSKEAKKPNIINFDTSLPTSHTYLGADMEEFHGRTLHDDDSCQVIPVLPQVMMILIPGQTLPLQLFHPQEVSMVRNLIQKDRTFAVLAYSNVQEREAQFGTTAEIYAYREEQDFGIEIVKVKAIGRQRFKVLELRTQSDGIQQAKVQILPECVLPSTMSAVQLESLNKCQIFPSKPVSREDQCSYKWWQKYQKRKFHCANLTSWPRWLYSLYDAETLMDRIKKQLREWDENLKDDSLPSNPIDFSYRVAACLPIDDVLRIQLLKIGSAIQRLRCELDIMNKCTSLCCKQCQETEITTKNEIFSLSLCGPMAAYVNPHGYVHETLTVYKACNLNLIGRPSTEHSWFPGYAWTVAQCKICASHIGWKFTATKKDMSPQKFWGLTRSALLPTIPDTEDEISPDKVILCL
Target sequence in this assay (P15731 whole entry partner, the tested form may be a part): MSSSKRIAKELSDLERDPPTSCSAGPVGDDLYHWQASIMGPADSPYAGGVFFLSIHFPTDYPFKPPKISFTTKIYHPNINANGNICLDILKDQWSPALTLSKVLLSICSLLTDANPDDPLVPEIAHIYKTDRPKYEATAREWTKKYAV

[3] = molecular target: T3, IKZF1 ubiquitylation by CRBN (Homo sapiens, UniProt Q13422+Q96SW2); test: split-CAT selective growth assay, IKZF1 as ubiquitylation target of CRBN; type: cell-based
T3 construct: expressed in transfected cells; host or cells: E. coli
T3 sequence (Q13422 whole entry): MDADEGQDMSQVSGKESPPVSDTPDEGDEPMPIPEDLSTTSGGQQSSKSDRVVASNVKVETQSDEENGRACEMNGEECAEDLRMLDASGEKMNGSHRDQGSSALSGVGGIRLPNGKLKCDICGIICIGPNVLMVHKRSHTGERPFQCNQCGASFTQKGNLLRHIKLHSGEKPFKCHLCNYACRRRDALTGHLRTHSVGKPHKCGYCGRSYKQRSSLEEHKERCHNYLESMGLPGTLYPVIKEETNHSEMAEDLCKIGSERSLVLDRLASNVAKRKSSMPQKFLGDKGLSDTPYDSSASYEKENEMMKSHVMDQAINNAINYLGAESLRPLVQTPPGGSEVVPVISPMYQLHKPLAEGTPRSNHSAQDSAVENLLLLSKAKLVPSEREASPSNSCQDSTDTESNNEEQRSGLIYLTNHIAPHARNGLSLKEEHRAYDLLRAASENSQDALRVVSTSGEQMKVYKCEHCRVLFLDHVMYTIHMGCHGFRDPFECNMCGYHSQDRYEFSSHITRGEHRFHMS
T3 sequence (Q96SW2 whole entry): as the sequence (Q96SW2 whole entry, the tested form may be a part) above
T3 sequence (P15731 whole entry partner): as the sequence (P15731 whole entry partner, the tested form may be a part) above
Method: as §1, §2, §3

[4] = molecular target: T2, GSPT1 ubiquitylation by CRBN; settings: Matyskiela et al. Nature 535, 252-257 (2016); cited from earlier work
Target sequence in this assay (P15170 whole entry, the tested form may be a part): as the sequence (P15170 whole entry, the tested form may be a part) above
Target sequence in this assay (Q96SW2 whole entry, the tested form may be a part): as the sequence (Q96SW2 whole entry, the tested form may be a part) above
Target sequence in this assay (Q16531 whole entry partner, the tested form may be a part): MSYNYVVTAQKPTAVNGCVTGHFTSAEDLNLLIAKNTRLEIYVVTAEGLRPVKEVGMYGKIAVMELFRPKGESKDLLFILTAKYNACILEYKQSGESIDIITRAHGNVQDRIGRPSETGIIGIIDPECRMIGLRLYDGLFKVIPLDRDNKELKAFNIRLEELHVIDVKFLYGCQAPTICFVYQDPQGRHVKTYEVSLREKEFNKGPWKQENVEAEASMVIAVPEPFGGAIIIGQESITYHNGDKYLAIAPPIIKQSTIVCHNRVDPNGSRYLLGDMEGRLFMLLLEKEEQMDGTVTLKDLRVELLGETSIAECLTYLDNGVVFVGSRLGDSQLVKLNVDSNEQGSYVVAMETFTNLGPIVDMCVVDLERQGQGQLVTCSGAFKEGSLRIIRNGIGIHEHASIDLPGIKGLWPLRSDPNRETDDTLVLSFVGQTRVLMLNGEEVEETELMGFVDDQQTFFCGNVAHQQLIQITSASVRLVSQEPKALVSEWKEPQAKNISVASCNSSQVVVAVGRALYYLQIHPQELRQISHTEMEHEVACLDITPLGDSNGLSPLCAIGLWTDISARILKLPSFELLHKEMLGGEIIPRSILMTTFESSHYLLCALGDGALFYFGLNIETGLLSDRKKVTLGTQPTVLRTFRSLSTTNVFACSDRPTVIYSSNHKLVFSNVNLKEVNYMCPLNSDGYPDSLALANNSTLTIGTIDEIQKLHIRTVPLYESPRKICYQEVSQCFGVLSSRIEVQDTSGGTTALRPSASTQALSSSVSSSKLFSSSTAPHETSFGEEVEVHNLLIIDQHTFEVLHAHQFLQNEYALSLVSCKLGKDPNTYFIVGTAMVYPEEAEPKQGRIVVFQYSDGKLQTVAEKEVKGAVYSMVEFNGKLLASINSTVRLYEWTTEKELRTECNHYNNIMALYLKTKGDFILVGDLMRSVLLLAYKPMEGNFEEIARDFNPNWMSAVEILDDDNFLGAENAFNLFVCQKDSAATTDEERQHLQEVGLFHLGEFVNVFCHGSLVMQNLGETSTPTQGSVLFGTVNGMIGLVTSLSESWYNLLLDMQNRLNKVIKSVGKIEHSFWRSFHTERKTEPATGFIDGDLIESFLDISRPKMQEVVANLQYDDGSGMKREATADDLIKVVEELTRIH

T1 sequence (P48729 whole entry, the tested form may be a part): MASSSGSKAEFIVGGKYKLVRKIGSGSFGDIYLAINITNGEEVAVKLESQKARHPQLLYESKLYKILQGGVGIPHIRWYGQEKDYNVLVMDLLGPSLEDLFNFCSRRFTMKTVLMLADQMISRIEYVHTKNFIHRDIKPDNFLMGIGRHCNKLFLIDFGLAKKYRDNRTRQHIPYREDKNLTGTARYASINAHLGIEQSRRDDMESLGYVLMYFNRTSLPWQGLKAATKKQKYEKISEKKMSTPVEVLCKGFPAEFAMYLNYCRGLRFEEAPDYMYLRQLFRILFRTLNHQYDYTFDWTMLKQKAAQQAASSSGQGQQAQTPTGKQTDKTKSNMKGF
T1 sequence (Q96SW2 whole entry, the tested form may be a part): as the sequence (Q96SW2 whole entry, the tested form may be a part) above
T1 sequence (P15731 whole entry partner, the tested form may be a part): as the sequence (P15731 whole entry partner, the tested form may be a part) above

| SMILES | growth of E. coli that express CK1a (ubiquitylation dependent growth, OD600) [1] | growth of E. coli that express GSPT1 (ubiquitylation dependent growth, OD600) ([2]; listed as TLD) | shape of dose response curve (growth), IKZF1 target ([3]; increased concentration of drug, split-CAT selection system) | growth of E. coli that express IKZF1 (ubiquitylation dependent growth, OD600) ([3]; split-CAT system, Cereblon-E2 (Ubc4) fusion, LB with chloramphenicol, 96 and 384 well plates) | CRBN dependent ubiquitylation of GSPT1 in the presence of the drug [4] | shape of dose response curve (growth), GSPT1 target ([2]; increased concentration of drug, selective conditions with chloramphenicol) | growth of E. coli that express GSPT1 (ubiquitylation dependent growth, OD600) [2] |
| --- | --- | --- | --- | --- | --- | --- | --- |
| O=C1CCC(N2C(=O)c3ccccc3C2=O)C(=O)N1 (stereo not shown) [Thalidomide] | significantly promoted the growth | not promoted | optimum characteristic response | significantly promoted the growth |  |  |  |
| Cc1ccc(NC(=O)NCc2ccc3c(c2)CN(C2CCC(=O)NC2=O)C3=O)cc1Cl (stereo not shown) [CC-885] |  |  |  |  | undergo CRBN dependent ubiquitylation | classical bell-shaped activity (growth) curve | significantly promoted the growth |

Reference: US20210356467A1, “SYSTEMS AND METHOD FOR SCREENING SMALL MOLECULES OF INTEREST” (TECHNOLOGY INNOVATION MOMENTUM FUND (ISRAEL) LIMITED …, priority 2018, published 2021)
